Here are results for 21 molecules from US11850247B2, “Antiviral compounds” (REGENTS OF THE UNIVERSITY OF MINNESOTA, priority 2020, dated 2023).

A value given as a limit tells only on which side of the number the result lay.

For series [1], the system named is HIV-1. The experiment in a line: Anti-HIV-1 activity in TZM-GFP cells (viral LTR-activated GFP expression). The series is classed as cell-based. The following applies: for EC50: Human immunodeficiency virus 1, HIV-1 strain MOI=1, GFP positive cells counted after 48 hours; for inhibition at 2 µM: Human immunodeficiency virus 1, 2 μM compound; for inhibition at 2 µM / inhibition at 20 µM: HIV-1 MOI=1; for inhibition at 20 µM: Human immunodeficiency virus 1, 20 μM compound. The procedure:
The potency of HIV-1 inhibition by a compound was based on its inhibitory effect on viral LTR-activated GFP expression compared with that of compound-free (DMSO) controls. Briefly, TZM-GFP cells were plated at density of 1×10^4 cells per well in a 96-well plate. 24 hours later, media was replaced with increasing concentrations of compound. 24 hours post treatment, cells were exposed to an HIV-1 strain (MOI=1).
(§1) The cytotoxicity of each compound was also determined in TZM-GFP cells. Cells were plated at a density of 1×10^4 cells per well in a 96-well plate and were continuously exposed to increasing concentrations of a compound for 72 hours. The number of viable cells in each well was determined using a Cell Proliferation Kit II (XTT), and 50% cytotoxicity concentration (CC50) values were determined. All the cell-based assays were conducted in duplicate and in at least two independent experiments. For the EC50 and CC50 dose responses, values were plotted in GraphPad Prism 5 and analyzed with the log (inhibitor) vs. normalized response-variable slope equation. Final values were calculated in each independent assay and the average values were determined. Statistical analysis (calculation of standard deviation) was performed by using Microsoft Excel.

Series [2] can be described thus: Cytotoxicity in TZM-GFP cells (XTT). The following applies: human, 72 hours exposure, XTT. The series is classed as cell-based. The procedure:
as §1
On the technique in general: Formazan colour is commonly taken as a measure of viable cells.

For series [3], the target named is covalently-crosslinked hexameric CA A14C/E45C/W184A/M185A (CA121) (Human immunodeficiency virus type 1 group M subtype B, UniProt P12493, A146C/E177C/M317A/W316A). The experiment in a line: Thermal shift assay (TSA), CA hexamer stability. It counts as binding, HIV-1. The following applies: compound 20 μM, ΔTm=Tm−T0 vs DMSO.
Series [4] can be described thus: Microsomal stability assay, human liver microsomes. The series is classed as in vitro ADME. As for the experimental part: (§2) The in vitro microsomal stability assay was conducted in duplicate in mouse and human liver microsomal systems, which were supplemented with nicotinamide adenine dinucleotide phosphate (NADPH) as a cofactor. […] The reaction was initiated by addition of 1 mM NADPH, followed by incubation at 37° C. A negative control was performed in parallel in the absence of NADPH to measure any chemical instability or non-NADPH dependent enzymatic degradation for each compound. At various time points (0, 5, 15, 30, and 60 minutes), 1 volume of reaction aliquot was taken and quenched with 3 volumes of acetonitrile containing an appropriate internal standard and 0.1% formic acid. The samples were then vortexed and centrifuged at 15,000 rpm for 5 minutes at 4° C. The supernatants were collected and analyzed by LC-MS/MS to determine the in vitro metabolic half-life (t1/2).
For orientation: Liver microsomes are vesicles of endoplasmic reticulum, rich in cytochrome P450 enzymes.

Series [5] in a line: Microsomal stability assay, mouse liver microsomes. It counts as in vitro ADME. The following applies: NADPH. The procedure:
as §2

[6] abbreviates: pH 7.4, with Cobicistat 0.5 μM (CYP3A inhibitor), human liver microsomes, 1 μM compound, NADPH, with 0.5 μM Cobicistat (CYP3A inhibitor), read-out: HLM (+Cobi) half-life (t1/2).
Setting [7] is: pH 7.4, human liver microsomes, 1 μM compound, NADPH, without Cobicistat, read-out: HLM half-life (t1/2).
Where [8] appears, read: pH 7.4, 1 μM compound, without Cobicistat, read-out: MLM half-life (t1/2).
Setting [9] is: pH 7.4, with Cobicistat 0.5 μM (CYP3A inhibitor), 1 μM compound, with 0.5 μM Cobicistat (CYP3A inhibitor), read-out: MLM (+Cobi) half-life (t1/2).

In general, EC50 refers to the concentration giving half of the maximal effect. Read a low EC50 as an effect from little substance. In general, CC50 refers to the concentration giving 50% cytotoxicity. A lower CC50 goes with greater toxicity to the cells. With `O=C(Cn1c(=O)[nH]c2ccccc2c1=O)N[C@@H](Cc1ccccc1)C(=O)N1CCC[C@H]1C(=O)Nc1ccccc1` [Example 33, (S)-1-((2-(2,4-dioxo-1,4-dihydroquinazolin-3(2H)-yl)acetyl)-L-phenylalanyl)-N-phenylpyrrolidine-2-carboxamide], in series [1], the EC50 was 1.6 ± 0.1 µM. For the same molecule, the CC50 at 72 h in series [2] was above 100 µM. For the same molecule, the “TSA ΔTm (° C.)” value in series [3] was 2.5 °C. In addition, in series [4] (human liver microsomes, ratio of t1/2 to that of PF74), the “half-life in HLMs relative to PF74” value is 44 fold. Further, the half-life at 1 μM in series [4] (setting [6]) is 578 min. For the same molecule, the “half-life in combination with Cobicistat compared with PF74” value in series [4] (with CYP3A inhibitor Cobicistat, microsome species not given) is “significantly longer half-life than that of PF74”.

One may read the inhibition as the percentage by which the read-out fell short of the control. `CN(C(=O)[C@H](Cc1ccccc1)NC(=O)CNC(=O)c1ccccc1)c1ccc(F)cc1` [Example 38, (S)—N-(2-((1-((4-fluorophenyl)(methyl)amino)-1-oxo-3-phenylpropan-2-yl)amino)-2-oxoethyl)benzamide]: in series [1], the inhibition at 2 µM stood at 12% and the inhibition at 20 µM came to 97%. In addition, the CC50 at 72 h in series [2] was above 50 µM. The “TSA ΔTm (° C.)” value in series [3] came out at 2.2 °C.

In series [1], `CN(C(=O)[C@H](Cc1ccccc1)NC(=O)CNC(=O)c1ccccc1)c1cccc(F)c1` [Example 39, (S)—N-(2-((1-((3-fluorophenyl)(methyl)amino)-1-oxo-3-phenylpropan-2-yl)amino)-2-oxoethyl)benzamide] returned an inhibition at 2 µM of 3% and an inhibition at 20 µM of 94%. For the same molecule, in series [2], the CC50 at 72 h is above 50 µM. For the same molecule, the “TSA ΔTm (° C.)” value in series [3] was found to be 0 °C.

Regarding `CN(C(=O)[C@H](Cc1ccccc1)NC(=O)CNC(=O)c1ccccc1)c1cccc(Br)c1` [Example 40, (S)—N-(2-((1-((3-bromophenyl)(methyl)amino)-1-oxo-3-phenylpropan-2-yl)amino)-2-oxoethyl)benzamide], in series [1], the inhibition at 2 µM was 38% and testing at 20 µM gave an inhibition of 97%. The molecule further displayed a CC50 at 72 h in series [2] above 50 µM. The “TSA ΔTm (° C.)” value in series [3] stood at 2.2 °C.

In series [1], `CCN(C(=O)[C@H](Cc1ccccc1)NC(=O)CNC(=O)c1ccccc1)c1ccccc1` [Example 41, (S)—N-(2-((1-(ethyl(phenyl)amino)-1-oxo-3-phenylpropan-2-yl)amino)-2-oxoethyl)benzamide] showed an EC50 of 2.5 ± 0.03 µM. In addition, the CC50 at 72 h in series [2] was above 50 µM. Moreover, the “TSA ΔTm (° C.)” value in series [3] was −2.5 °C.

As for `Cc1cn(CC(=O)N[C@@H](Cc2ccccc2)C(=O)N(C)c2ccccc2)c(=O)[nH]c1=O` [Example 42, (S)—N-methyl-2-(2-(5-methyl-2,4-dioxo-3,4-dihydropyrimidin-1(2H)-yl)acetamido)-N,3-diphenylpropanamide], in series [1], 2 µM produced 35% inhibition and the inhibition at 20 µM stood at 95%. The molecule also showed a CC50 at 72 h in series [2] above 50 µM. Also, the “TSA ΔTm (° C.)” value in series [3] is 0.5 °C.

In series [1], `Cc1ccc(N(C)C(=O)[C@H](Cc2ccccc2)NC(=O)Cn2cc(C)c(=O)[nH]c2=O)cc1` [Example 43, (S)—N-methyl-2-(2-(5-methyl-2,4-dioxo-3,4-dihydropyrimidin-1(2H)-yl)acetamido)-3-phenyl-N-(p-tolyl)propenamide] had an inhibition at 2 µM of 7% and an inhibition at 20 µM of 85%. Besides, the CC50 at 72 h in series [2] is above 50 µM. The “TSA ΔTm (° C.)” value in series [3] stood at 0.6 °C.

In the case of `Cc1cn(CC(=O)N[C@@H](Cc2ccccc2)C(=O)N(C)c2ccc(Cl)cc2)c(=O)[nH]c1=O` [Example 44, (S)—N-(4-chlorophenyl)-N-methyl-2-(2-(5-methyl-2,4-dioxo-3,4-dihydropyrimidin-1(2H)-yl)acetamido)-3-phenylpropanamide], the EC50 in series [1] came to 1.7 ± 0.2 µM. In addition, the CC50 at 72 h in series [2] was above 50 µM. Further, the “TSA ΔTm (° C.)” value in series [3] came out at 1.7 °C.

In series [1], `Cc1cn(CC(=O)N[C@@H](Cc2ccccc2)C(=O)N(C)c2cccc(Cl)c2)c(=O)[nH]c1=O` [Example 45, (S)—N-(3-chlorophenyl)-N-methyl-2-(2-(5-methyl-2,4-dioxo-3,4-dihydropyrimidin-1(2H)-yl)acetamido)-3-phenylpropanamide] had an inhibition at 2 µM of 37% and an inhibition at 20 µM of 95%. For the same molecule, the 50% cytotoxic concentration (CC50) at 72 h in series [2] was above 50 µM. The “TSA ΔTm (° C.)” value in series [3] worked out at 0.6 °C.

In the case of `Cc1cn(CC(=O)N[C@@H](Cc2ccccc2)C(=O)N(C)c2ccc(F)cc2)c(=O)[nH]c1=O` [Example 46, (S)—N-(4-fluorophenyl)-N-methyl-2-(2-(5-methyl-2,4-dioxo-3,4-dihydropyrimidin-1(2H)-yl)acetamido)-3-phenylpropanamide], in series [1], the inhibition at 2 µM is 6% and at 20 µM the inhibition was 94%. The CC50 at 72 h in series [2] was above 50 µM. The “TSA ΔTm (° C.)” value in series [3] was found to be 0 °C.

In the case of `Cc1cn(CC(=O)N[C@@H](Cc2ccccc2)C(=O)N(C)c2cccc(F)c2)c(=O)[nH]c1=O` [Example 47, (S)—N-(3-fluorophenyl)-N-methyl-2-(2-(5-methyl-2,4-dioxo-3,4-dihydropyrimidin-1(2H)-yl)acetamido)-3-phenylpropanamide], in series [1], the inhibition at 2 µM amounted to 0% and the inhibition at 20 µM amounted to 74%. The same molecule registered a CC50 at 72 h in series [2] above 50 µM. The “TSA ΔTm (° C.)” value in series [3] was 0.9 °C.

In series [1], `Cc1cn(CC(=O)N[C@@H](Cc2ccccc2)C(=O)N(C)c2cccc(Br)c2)c(=O)[nH]c1=O` [Example 48, (S)—N-(3-bromophenyl)-N-methyl-2-(2-(5-methyl-2,4-dioxo-3,4-dihydropyrimidin-1(2H)-yl)acetamido)-3-phenylpropanamide] showed an inhibition at 2 µM of 22% and an inhibition at 20 µM of 99.7%. Also, the CC50 at 72 h in series [2] is above 50 µM. Further, in series [3], the “TSA ΔTm (° C.)” value came out at 0.5 °C.

On to `Cc1[nH]c2ccccc2c1CC(=O)N[C@@H](Cc1ccccc1)C(=O)N(C)c1ccccc1` [PF-74, reference compound], for which, in series [4] (human liver microsomes, 1 μM compound, NADPH, without Cobicistat), the “HLM half-life (t1/2)” value is “less than 1 min”. Also, the “MLM half-life (t1/2)” value in series [5] (1 μM compound, without Cobicistat) is 0.6 min; in series [5] (1 μM compound, without Cobicistat, listed as PF74) it was “less than 1 min”.

As to `Cc1cccc2c1NC(=O)C2CC(=O)N[C@@H](Cc1ccccc1)C(=O)N(C)c1ccccc1` (stereo partly drawn) [drawing 177], the values for the half-life at 1 μM in series [4] (setting [7]) and in series [5] (setting [8]) were 7 min and 1 min, respectively.

With `Cc1cccc2c1NC(=O)C2CC(=O)N[C@@H](Cc1ccccc1)C(=O)N(C)c1cccc(F)c1` (stereo partly drawn) [drawing 178], the half-life at 1 μM came to 433 min in series [4] (setting [6]), 2.5 min in series [4] (setting [7]), 1.1 min in series [5] (setting [8]) and 20 min in series [5] (setting [9]).

As to `Cc1ccc(C)c2c1NC(=O)C2CC(=O)N[C@@H](Cc1ccccc1)C(=O)N(C)c1ccccc1` (stereo partly drawn) [drawing 179], the half-life at 1 μM in series [4] (setting [7]) stood at 1.5 min; in series [5] (setting [8]) it was 0.6 min.

`Cc1ccc(C)c2c1NC(=O)C2CC(=O)N[C@@H](Cc1ccccc1)C(=O)N(C)c1cccc(Cl)c1` (stereo partly drawn) [drawing 180]: the half-life at 1 μM in series [4] (setting [6]) was 107 min; in series [4] (setting [7]), 6.7 min; in series [5] (setting [8]) it was 1.4 min; in series [5] (setting [9]) it was 34 min.

For the molecule `CN(C(=O)[C@H](Cc1ccccc1)NC(=O)Cc1ccc2ccccc2c1)c1ccccc1` [drawing 181], the half-life at 1 μM is 1.8 min in series [4] (setting [7]) and 0.5 min in series [5] (setting [8]).

Regarding `CN(C(=O)[C@H](Cc1ccccc1)NC(=O)Cc1ccc2ccccc2c1)c1ccc(Cl)cc1` [drawing 182], the half-life at 1 μM in series [4] (setting [6]) came out at 239 min; in series [4] (setting [7]), 2.7 min; in series [5] (setting [8]), 1.4 min; in series [5] (setting [9]), 18 min.

Take `CN(C(=O)[C@H](Cc1ccccc1)NC(=O)Cc1cccc2ccccc12)c1ccccc1` [drawing 183]: the half-life at 1 μM in series [4] (setting [7]) stood at 0.6 min; in series [5] (setting [8]), 0.5 min.

Turning to `CN(C(=O)[C@H](Cc1ccccc1)NC(=O)Cc1cccc2ccccc12)c1ccc(Cl)cc1` [drawing 184], the half-life at 1 μM in series [4] (setting [6]) was found to be 102 min; in series [4] (setting [7]), 1.1 min; in series [5] (setting [8]), 0.6 min; in series [5] (setting [9]), 7.4 min.
